This passage reports minimal effective concentration and mitochondrial uncoupling activity results from patent publication US20260306502A1, “MITOCHONDRIAL UNCOUPLERS FOR TREATMENT OF METABOLIC DISEASES AND CANCER” (Mito Biopharma, LLC, priority 2022, published 2026).

The test system of the first assay is C2C12 cells. Briefly: Mitochondrial uncoupling activity by oxygen consumption rate (OCR) assay, Seahorse, in presence of oligomycin. The class given is cell-based, mouse. The following applies: Mus musculus, C2C12; in the presence of oligomycin 2.5 μM; read-out: COCR-min: minimal concentration increasing OCR in the presence of oligomycin. As to the method:
By definition, mitochondrial uncoupling is the decoupling of mitochondrial electron transport chain activity (mitochondrial oxidation) from ATP synthesis by mitochondrial ATP synthase. Technically, mitochondrial uncoupling activity is defined by the ability of a chemical compound to induce oxygen consumption of cells or isolated mitochondria in the presence of a mitochondrial ATP synthase inhibitor such as oligomycin. Accordingly, mitochondrial uncoupling activity was determined by oxygen consumption rate assay with a Seahorse XF96 or a Seahorse XF24 instrument following the vendor's instruction, using mouse myoblast C2C12 cells grown in a medium containing 10% fetal bovine serum. OCR was measured stepwise under the following conditions: first under normal growth conditions; then. OCR was measured after oligomycin was added to reach a final concentration of 2.5 μM); then OCR was measured after the compound was further added at varying concentrations. Finally, rotenone and antimycin A were added to confirm that the measurement was mitochondrial oxygen consumption (rotenone and […] mitochondrial electron transport chain inhibitors).
COCR-min the minimal concentration required for each compound to induce OCR in the presence of oligomycin, of disclosed compounds, was also determined by varying the final concentration of the compound added to the Seahorse OCR analysis experiment as described above (FIG. 2, varying testing compound concentration). Table 8 summarizes the mitochondrial uncoupling activity of disclosed compounds, as represented by COCR-min.
For the compound `COCOCc1cc(Cl)cc(C(=O)Nc2nc3ccc(C(F)(F)F)cc3s2)c1O` [Compound 1, 5-chloro-2-hydroxy-3-((methoxymethoxy)methyl)-N-(6-(trifluoromethyl)benzo[d]thiazol-2-yl)benzamide], the minimal effective concentration is less than 5 µM.

As to `COCCOCc1cc(Cl)cc(C(=O)Nc2nc3ccc(OC(F)(F)F)cc3s2)c1O` [Compound 5, 5-chloro-2-hydroxy-3-((2-methoxyethoxy)methyl)-N-(6-(trifluoromethoxy)benzo[d]thiazol-2-yl)benzamide], the minimal effective concentration fell in the range of 5 to 10 µM. With `COCCOCc1cc(Cl)cc(C(=O)Nc2cnc(C(F)(F)F)cn2)c1O` [Compound 6, 5-chloro-2-hydroxy-3-((2-methoxyethoxy)methyl)-N-(5-(trifluoromethyl)pyrazin-2-yl)benzamide], the minimal effective concentration is 5 to 10 µM.

For the compound `COCCOCc1cc(Cl)cc(C(=O)Nc2nc3ccc(F)cc3s2)c1O` [Compound 8, 5-chloro-N-(6-fluorobenzo[d]thiazol-2-yl)-2-hydroxy-3-((2-methoxyethoxy)methyl)benzamide], the minimal effective concentration was less than 5 µM. Take `CN(C)CCc1cc(Cl)cc(C(=O)Nc2ccc(C(F)(F)F)cc2Cl)c1O` [Compound 18, 5-chloro-N-(2-chloro-4-(trifluoromethyl)phenyl)-3-(2-(dimethylamino)ethyl)-2-hydroxybenzamide]: the minimal effective concentration is less than 5 µM. Still for that read-out and setting: in the case of `CC(=O)N1CCN(Cc2cc(Cl)cc(C(=O)Nc3nc4ccc(C(F)(F)F)cc4s3)c2O)CC1` [Compound 19, 3-((4-acetylpiperazin-1-yl)methyl)-5-chloro-2-hydroxy-N-(6-(trifluoromethyl)benzo[d]thiazol-2-yl)benzamide] it was 5 to 10 µM; in that of `COCCOCc1cc(Cl)cc(C(=O)Nc2ccc(C(F)(F)F)nc2)c1O` [Compound 20, 5-chloro-2-hydroxy-3-((2-methoxyethoxy)methyl)-N-(6-(trifluoromethyl)pyridin-3-yl)benzamide], 5 to 10 µM. With `COCCOCc1cc(Cl)cc(C(=O)Nc2cnc(C(F)(F)F)nc2)c1O` [Compound 21, 5-chloro-2-hydroxy-3-((2-methoxyethoxy)methyl)-N-(2-(trifluoromethyl)pyrimidin-5-yl)benzamide], the minimal effective concentration was greater than 10 µM. Take `COCCNCc1cc(Cl)cc(C(=O)Nc2nc3ccc(C(F)(F)F)cc3s2)c1O` [Compound 22, 5-chloro-2-hydroxy-3-(((2-methoxyethyl)amino)methyl)-N-(6-(trifluoromethyl)benzo[d]thiazol-2-yl)benzamide]: the minimal effective concentration was less than 5 µM. Turning to `COCCOCCN(C)Cc1cc(Cl)cc(C(=O)Nc2nc3ccc(C(F)(F)F)cc3s2)c1O` [Compound 24, 5-chloro-2-hydroxy-3-(((2-(2-methoxyethoxy)ethyl)(methyl)amino)methyl)-N-(6-(trifluoromethyl)benzo[d]thiazol-2-yl)benzamide], the minimal effective concentration was less than 5 µM.

`CN1CCN(Cc2cc(Cl)cc(C(=O)Nc3nc4ccc(C(F)(F)F)cc4s3)c2O)CC1` [Compound 28, 5-chloro-2-hydroxy-3-((4-methylpiperazin-1-yl)methyl)-N-(6-(trifluoromethyl)benzo[d]thiazol-2-yl)benzamide]: the minimal effective concentration was less than 5 µM. On to `O=C(Nc1nc2ccc(C(F)(F)F)cc2s1)c1cc(Cl)cc(CN2CCC(O)C2)c1O` (stereo not shown) [Compound 30, 5-chloro-2-hydroxy-3-((3-hydroxypyrrolidin-1-yl)methyl)-N-(6-(trifluoromethyl)benzo[d]thiazol-2-yl)benzamide], for which the minimal effective concentration was greater than 10 µM.

For the compound `CC(=O)NC1CCN(Cc2cc(Cl)cc(C(=O)Nc3nc4ccc(C(F)(F)F)cc4s3)c2O)C1` (stereo not shown) [Compound 33, 3-((3-acetamidopyrrolidin-1-yl)methyl)-5-chloro-2-hydroxy-N-(6-(trifluoromethyl)benzo[d]thiazol-2-yl)benzamide], the minimal effective concentration was greater than 10 µM. For the compound `CO/N=C/c1cc(Cl)cc(C(=O)Nc2nc3ccc(C(F)(F)F)cc3s2)c1O` [Compound 39, (E)-5-chloro-2-hydroxy-3-((methoxyimino)methyl)-N-(6-(trifluoromethyl)benzo[d]thiazol-2-yl)benzamide], the minimal effective concentration was greater than 10 µM. Regarding `COCCOCc1cc(Cl)cc(C(=O)Nc2nc3ccc(C(F)F)cc3s2)c1O` [Compound 42, 5-chloro-N-(6-(difluoromethyl)benzo[d]thiazol-2-yl)-2-hydroxy-3-((2-methoxyethoxy)methyl)benzamide], the minimal effective concentration fell in the range of 5 to 10 µM. For `COCCOCc1cc(Cl)cc(C(=O)Nc2ccc(C(F)(F)F)cn2)c1O` [Compound 45, 5-chloro-2-hydroxy-3-((2-methoxyethoxy)methyl)-N-(5-(trifluoromethyl)pyridin-2-yl)benzamide], the minimal effective concentration lay within 5 to 10 µM. `COCCOCc1cc(I)cc(C(=O)Nc2nc3ccc(C(F)(F)F)cc3s2)c1O` [Compound 46, 2-hydroxy-5-iodo-3-((2-methoxyethoxy)methyl)-N-(6-(trifluoromethyl)benzo[d]thiazol-2-yl)benzamide]: the minimal effective concentration was less than 5 µM. For `COCCOCc1cc(Cl)cc(C(=O)Nc2ccc(C(F)(F)F)nc2Cl)c1O` [Compound 47, 5-chloro-N-(2-chloro-6-(trifluoromethyl)pyridin-3-yl)-2-hydroxy-3-((2-methoxyethoxy)methyl)benzamide], the minimal effective concentration is less than 5 µM. As to `O=C(Nc1ncc(C(F)(F)F)s1)c1cc(Cl)cc(CN2CCOCC2)c1O` [Compound 51, 5-chloro-2-hydroxy-3-(morpholinomethyl)-N-(5-(trifluoromethyl)thiazol-2-yl)benzamide], the minimal effective concentration was less than 5 µM. On to `O=C(Nc1ccc(C(F)(F)F)nc1)c1cc(Cl)cc(CN2CCOCC2)c1O` [Compound 53, 5-chloro-2-hydroxy-3-(morpholinomethyl)-N-(6-(trifluoromethyl)pyridin-3-yl)benzamide], for which the minimal effective concentration is less than 5 µM.

For `N#CC1CCN(Cc2cc(Cl)cc(C(=O)Nc3ccc(C(F)(F)F)nc3)c2O)C1` (stereo not shown) [Compound 55, 5-chloro-3-((3-cyanopyrrolidin-1-yl)methyl)-2-hydroxy-N-(6-(trifluoromethyl)pyridin-3-yl)benzamide], the minimal effective concentration was less than 5 µM.

As for `O=C(Nc1nc2ccc(C(F)(F)F)cc2s1)c1cc(Cl)cc(CN2CCCC2C(F)(F)F)c1O` (stereo not shown) [Compound 56, 5-chloro-2-hydroxy-N-(6-(trifluoromethyl)benzo[d]thiazol-2-yl)-3-((2-(trifluoromethyl)pyrrolidin-1-yl)methyl)benzamide], the minimal effective concentration was less than 5 µM. Turning to `COc1cc(C(F)(F)F)cc2sc(NC(=O)c3cc(Cl)cc(C)c3O)nc12` [Compound 67, 5-chloro-2-hydroxy-N-(4-methoxy-6-(trifluoromethyl)benzo[d]thiazol-2-yl)-3-methylbenzamide], the minimal effective concentration is less than 5 µM.

Staying with this assay, now noted: Mus musculus, C2C12; minimal concentration leading to OCR increase; read-out: Activity (Cmin-OCR).
As to `O=C(Nc1nc2ccc(C(F)(F)F)cc2s1)c1cc(Cl)cc(CO)c1O` [Compound 49 in U.S. Pat. No. 10,227,315, reference compound], the minimal effective concentration stood at 25 µM.

Staying with this assay, now noted: in words, compared to similar compounds of the present invention.
Turning to `O=C(Nc1nc2ccc(C(F)(F)F)cc2s1)c1cc(Cl)cc(CO)c1O` [Compound 49 in U.S. Pat. No. 10,227,315, reference compound], the mitochondrial uncoupling activity result is given as “low”.
